The compounds below were run on IL-2 secretion by Jurkat T cells (assay: Inhibition of IL-2 secretion (PHA-stimulated Jurkat T cells, ELISA)). Details: Homo sapiens, 20 to 24 hours.
Assay type: cell-based
Description: The CRAC channel modulatory activity of the compounds were thus evaluated by measuring the secretion of IL-2 by antigen stimulated T-cells in vitro. Alternatively, such activity can also be evaluated by assay methods known to one skilled in the art.
Inhibition of IL-2 secretion: Jurkat T cells were seeded at a density of 0.5 to 1 million cells per well in RPMI medium. Test compounds from this invention were added to the cells at different concentrations. This was followed by the addition of PHA, a T cell mitogen after 10 minutes. The cells were then incubated for 20 to 24 hours in a CO2 incubator at 37° C. After incubation with the compounds, cells were centrifuged; the supernatant was collected and processed for ELISA to quantitate the amount of IL-2 secreted. A commercial ELISA kit (R&D Systems, Inc. Minneapolis, Minn., USA) was used to estimate the IL-2 concentrations. Amount of IL-2 secreted by cells stimulated with PHA was considered as a 100% maximal signal and the decrease in amount of IL-2 secreted by cells treated with the test compounds was expressed as percent inhibition of the maximal signal. The dose response data was analyzed using 4-parametric sigmoidal dose response (variable slope) curve-fit.

Q: With `Cc1cc2c(cc1-c1ccc(NC(=O)c3c(F)cccc3F)cc1)OC(C)(C)CC2=O` [Example 1, 2,6-Difluoro-N-(4-(2,2,6-trimethyl-4-oxochroman-7-yl)phenyl)benzamide] as the compound, how does the IC50 read?
A: The IC50 was 25 to 50 nM.

Q: `CCc1cc2c(cc1-c1ccc(NC(=O)c3c(F)cccc3F)cc1)OC(C)(C)CC2=O` [Example 2, N-(4-(6-Ethyl-2,2-dimethyl-4-oxochroman-7-yl)phenyl)-2,6-difluorobenzamide] was tested. Which IC50 did it give?
A: Its IC50 is less than 25 nM.

Q: For `Cc1cc2c(cc1-c1cnc(NC(=O)c3c(F)cccc3F)cn1)OC(C)(C)CC2=O` [Example 4, 2,6-Difluoro-N-(5-(2,2,6-trimethyl-4-oxochroman-7-yl)pyrazin-2-yl)benzamide], which IC50 is on record?
A: The IC50 was less than 25 nM.

Q: `CCc1cc2c(cc1-c1cnc(NC(=O)c3c(F)cccc3F)cn1)OC(C)(C)CC2=O` [Example 5, N-(5-(6-Ethyl-2,2-dimethyl-4-oxochroman-7-yl)pyrazin-2-yl)-2,6-difluorobenzamide] was tested. Which IC50 did it give?
A: Its IC50 is less than 25 nM.

Q: With `Cc1cc2c(cc1-c1ccc(NC(=O)c3c(F)cccc3F)nc1)OC(C)(C)CC2=O` [Example 6] as the compound, how does the IC50 read?
A: The IC50 was 25 to 50 nM.

Q: For `Cc1c(-c2cnc(NC(=O)c3c(F)cccc3F)cn2)ccc2c1OC(C)(C)CC2` [Example 7, 2,6-Difluoro-N-(5-(2,2,8-trimethylchroman-7-yl)pyrazin-2-yl)benzamide], which IC50 is on record?
A: Its IC50 is 50 to 100 nM.

Q: Which IC50 does the source give for `Cc1cc2c(cc1-c1ccc(NC(=O)c3c(F)cccc3Cl)cc1)OC1(CCC1)CC2` [Example 8, 2-Chloro-6-fluoro-N-(4-(6-methylspiro[chroman-2,1′-cyclobutan]-7-yl)phenyl)benzamide] here?
A: Its IC50 is less than 25 nM.

Q: `Cc1cc2c(cc1-c1ccc(NC(=O)c3c(C)cccc3F)cc1)OC1(CCC1)CC2` [Example 9, 2-Fluoro-6-methyl-N-(4-(6-methylspiro[chroman-2,1′-cyclobutan]-7-yl)phenyl)benzamide] was tested. Which IC50 did it give?
A: Its IC50 is 25 to 50 nM.

Q: For `Cc1cc2c(cc1-c1ccc(NC(=O)c3c(C)cccc3F)cc1)OC1(CCC1)CC2=O` [Example 10, 2-Fluoro-6-methyl-N-(4-(6-methyl-4-oxospiro[chroman-2,1′-cyclobutan]-7-yl)phenyl)benzamide], which IC50 is on record?
A: The IC50 was 25 to 50 nM.

Q: For `Cc1cc2c(cc1-c1ccc(NC(=O)c3c(F)cccc3Cl)cc1)OC1(CCC1)CC2=O` [Example 11, 2-Chloro-6-fluoro-N-(4-(6-methyl-4-oxospiro[chroman-2,1′-cyclobutan]-7-yl)phenyl)benzamide], which IC50 is on record?
A: Its IC50 is 25 to 50 nM.

Q: With `Cc1cc2c(cc1-c1ccc(C(=O)Nc3c(F)cccc3F)cc1)OC1(CCC1)CC2=O` [Example 13, N-(2,6-Difluorophenyl)-4-(6-methyl-4-oxospiro[chroman-2,1′-cyclobutan]-7-yl)benzamide] as the compound, how does the IC50 read?
A: Its IC50 is 25 to 50 nM.

Q: For `Cc1cc2c(cc1-c1ccc(NC(=O)c3c(F)cccc3F)cc1)OC1(CCC1)CC2=O` [Example 16, 2,6-Difluoro-N-(4-(6-methyl-4-oxospiro[chroman-2,1′-cyclobutan]-7-yl)phenyl)benzamide], which IC50 is on record?
A: Its IC50 is less than 25 nM.

Q: `Cc1cc2c(cc1-c1ccc(NC(=O)c3c(F)cccc3F)cc1)C(=O)CC1(CCC1)O2` [Example 17, 2,6-Difluoro-N-(4-(7-methyl-4-oxospiro[chroman-2,1′-cyclobutan]-6-yl)phenyl)benzamide] was tested. Which IC50 did it give?
A: Its IC50 is 50 to 100 nM.

Q: How did the IC50 turn out when `Cc1cc2c(cc1-c1ccc(NC(=O)c3c(F)cccc3F)cc1)CCC1(CCC1)O2` [Example 18, 2,6-Difluoro-N-(4-(7-methylspiro[chroman-2,1′-cyclobutan]-6-yl)phenyl)benzamide] was run?
A: The IC50 was 50 to 100 nM.

Q: How did the IC50 turn out when `Cc1c(-c2ccc(NC(=O)c3c(F)cccc3F)cc2)ccc2c1OC1(CCC1)CC2=O` [Example 19, 2,6-Difluoro-N-(4-(8-methyl-4-oxospiro[chroman-2,1′-cyclobutan]-7-yl)phenyl)benzamide] was run?
A: Its IC50 is 100 to 500 nM.

Q: For `CCc1cc2c(cc1-c1ccc(NC(=O)c3c(F)cccc3F)cc1)OC1(CCC1)CC2=O` [Example 20, N-(4-(6-Ethyl-4-oxospiro[chroman-2,1′-cyclobutan]-7-yl)phenyl)-2,6-difluorobenzamide], which IC50 is on record?
A: The IC50 was less than 25 nM.

— US9790231B2 (LUPIN LIMITED, priority 2013, dated 2017)
